The source of these data is US10703757B2, “Compounds and methods for CDK8 modulation and indications therefor” (Plexxikon Inc., priority 2016, dated 2020).

A word on the IC50: it is the concentration at which inhibition is half-maximal.

Experiment [1] has as its system CDK8 (phosphorylation of STAT1 at serine 727 in A549 cells). Kind of experiment: Cell based Phospho-STAT1 assay (IFNγ-stimulated A549 cells, AlphaLISA). The settings on record: Homo sapiens, A549, A549 cells, phospho-STAT1 after IFNγ stimulation. In outline: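 A549 cells given serial compound dilutions for 1 h at 37 °C, then stimulated with IFNγ at 10 ng/mL final for 30 min. Lysate STAT1 Ser727 phosphorylation measured by AlphaLISA; % inhibition vs stimulated/unstimulated DMSO controls, IC50 by nonlinear regression.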
A general note: Bead proximity is the source of the signal in Alpha formats.

The test system of experiment [2] is CDK8 (TCF/LEF luciferase reporter in HCT116 cells). Kind of experiment: Cell based TCF/LEF reporter assay (HCT116+TCF/LEF luciferase). The settings on record: Homo sapiens, HCT-116, 24 h. In outline:
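HCT116 cells stably carrying a TCF/LEF-luciferase reporter (endogenous mutant β-catenin), seeded overnight, then exposed to serial compound dilutions for 24 h at 37 °C. Luminescence normalized to CellTiter-Fluor viability signal. % inhibition relative to DMSO and 10 uM CCT251545 controls, with IC50 from nonlinear regression.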

Regarding `N#CCCCn1cc(-c2ccc(-c3cnn4ccnc(C5CCC(C#N)CC5)c34)cc2)cn1` (stereo not shown) [Compound P-0002, (1s,4s)-4-(3-(4-(1-(3-cyanopropyl)-1H-pyrazol-4-yl)phenyl)pyrazolo[1,5-a]pyrazin-4-yl)cyclohexane-1-carbonitrile], the IC50 in experiment [1] and in experiment [2] was 0.0001 to 0.1 µM each time.

`CC(C)(C#Cc1cccn2ncc(-c3ccc(-c4cnn(CCS(C)(=O)=O)c4)cc3)c12)C(N)=O` [Compound P-0464, 2,2-dimethyl-4-(3-(4-(1-(2-(methylsulfonyl)ethyl)-1H-pyrazol-4-yl)phenyl)pyrazolo[1,5-a]pyridin-4-yl)but-3-ynamide]: the concentration for half-maximal inhibition (IC50) in experiment [1] and in experiment [2] was 0.0001 to 0.1 µM each time.

`Cc1ccc2cc(-c3cnc4[nH]ccc4c3C#CC(C)(C)C(N)=O)ccc2n1` [Compound P-0131, 2,2-dimethyl-4-(5-(2-methylquinolin-6-yl)-1H-pyrrolo[2,3-b]pyridin-4-yl)but-3-ynamide]: the IC50 in experiment [1] was 0.1 to 1 µM; in experiment [2], 1 to 10 µM.

Regarding `Cc1cc(-c2cnn3ccnc(C4=CCC(C#N)CC4)c23)ccc1C#N` (stereo not shown) [Compound P-0097, 4-(4-(4-cyanocyclohex-1-en-1-yl)pyrazolo[1,5-a]pyrazin-3-yl)-2-methylbenzonitrile], the results for the IC50 in experiment [1] and in experiment [2] were 0.0001 to 0.1 µM and 0.1 to 1 µM, respectively.

With `N#CC1CCN(c2c(-c3ccc4cc(C(=O)O)ccc4c3)cnc3[nH]ccc23)CC1` [Compound P-0200, 6-(4-(4-cyanopiperidin-1-yl)-1H-pyrrolo[2,3-b]pyridin-5-yl)-2-naphthoic acid], the values for the IC50 in experiment [1] and in experiment [2] were 1 to 10 µM and 0.1 to 1 µM, respectively.

Consider `Cn1cc(C#Cc2cnc3[nH]ccc3c2C2=CCC(C#N)CC2)cn1` (stereo not shown) [Compound P-0184, 4-[5-[2-(1-methylpyrazol-4-yl)ethynyl]-H-pyrrolo[2,3-b]pyridin-4-yl]cyclohex-3-ene-1-carbonitrile], for which the IC50 fell in the range of 0.0001 to 0.1 µM in experiment [1] and 0.1 to 1 µM in experiment [2].

With `N#CC1CC=C(c2cccn3ncc(-c4ccc5nccnc5c4)c23)CC1` (stereo not shown) [Compound P-0122, 4-(3-(quinoxalin-6-yl)pyrazolo[1,5-a]pyridin-4-yl)cyclohex-3-ene-1-carbonitrile], the IC50 in experiment [1] and in experiment [2] was 0.0001 to 0.1 µM throughout.

For `CC(C)(O)Cn1cc(-c2ccc(-c3cnn4cccc(C#CC(C)(C)C(N)=O)c34)cc2)cn1` [Compound P-0006, 4-(3-(4-(1-(2-hydroxy-2-methylpropyl)-1H-pyrazol-4-yl)phenyl)pyrazolo[1,5-a]pyridin-4-yl)-2,2-dimethylbut-3-ynamide], the half-maximal inhibitory concentration (IC50) in experiment [1] and in experiment [2] was 0.0001 to 0.1 µM throughout.

Regarding `Cc1cc(C)n(-c2ccc(-c3cnn4cccc(N5CCC(C#N)CC5)c34)cc2)n1` [Compound P-0253, 1-(3-(4-(3,5-dimethyl-1H-pyrazol-1-yl)phenyl)pyrazolo[1,5-a]pyridin-4-yl)piperidine-4-carbonitrile], the IC50 in experiment [1] and in experiment [2] was 0.1 to 1 µM each time.

As for `N#CC1CCC(c2cccn3ncc(-c4ccc(F)cc4)c23)CC1` (stereo not shown) [Compound P-0139, 4-(3-(4-fluorophenyl)pyrazolo[1,5-a]pyridin-4-yl)cyclohexane-1-carbonitrile], the half-inhibitory concentration (IC50) in experiment [1] and in experiment [2] was 0.0001 to 0.1 µM each time.

For the compound `NC(=O)C1CC=C(c2nccn3ncc(-c4ccc(OCCN5CCOCC5)cc4)c23)CC1` (stereo not shown) [Compound P-0129, 4-(3-(4-(2-morpholino-ethoxy)phenyl)pyrazolo[1,5-a]pyrazin-4-yl)cyclohex-3-ene-1-carboxamide], the half-maximal inhibitory concentration (IC50) in experiment [1] and in experiment [2] was 0.0001 to 0.1 µM in each case.

Regarding `CC(C)(O)C#Cc1cccn2ncc(-c3ccc4cc(NS(C)(=O)=O)ccc4c3)c12` [Compound P-0216, N-(6-(4-(3-hydroxy-3-methylbut-1-yn-1-yl)pyrazolo[1,5-a]pyridin-3-yl)naphthalen-2-yl)methanesulfonamide], the values for the IC50 in experiment [1] and in experiment [2] were 0.0001 to 0.1 µM and 0.1 to 1 µM, respectively.

With `CS(=O)(=O)Cn1cc(-c2ccc(-c3cnn4ccnc(C5=CCC(C#N)CC5)c34)cc2)cn1` (stereo not shown) [Compound P-0028, 4-(3-(4-(1-((methylsulfonyl)methyl)-1H-pyrazol-4-yl)phenyl)pyrazolo[1,5-a]pyrazin-4-yl)cyclohex-3-ene-1-carbonitrile], the IC50 in experiment [1] and in experiment [2] was 0.0001 to 0.1 µM in each case.

As to `N#CC1CC=C(c2c(-c3ccc(-n4ccnn4)cc3)cnc3[nH]ccc23)CC1` (stereo not shown) [Compound P-0201, 4-(5-(4-(1H-1,2,3-triazol-1-yl)phenyl)-1H-pyrrolo[2,3-b]pyridin-4-yl)cyclohex-3-ene-1-carbonitrile], the IC50 in experiment [1] fell in the range of 0.1 to 1 µM; in experiment [2], 0.0001 to 0.1 µM.

For the compound `N#CCn1cc(-c2ccc(-c3cnn4ccnc(C5CCC(C#N)CC5)c34)cc2)cn1` (stereo not shown) [Compound P-0014, (1s,4s)-4-(3-(4-(1-(cyanomethyl)-1H-pyrazol-4-yl)phenyl)pyrazolo[1,5-a]pyrazin-4-yl)cyclohexane-1-carbonitrile], the IC50 in experiment [1] and in experiment [2] was 0.0001 to 0.1 µM in each case.

For `N#CC1CCN(c2c(-c3ccc4c(c3)NC(=O)C4)cnc3[nH]ccc23)CC1` [Compound P-0189, 1-(5-(2-oxoindolin-6-yl)-1H-pyrrolo[2,3-b]pyridin-4-yl)piperidine-4-carbonitrile], the IC50 in experiment [1] and in experiment [2] was 0.0001 to 0.1 µM each time.

For `Cn1cc(-c2ccc(-c3cnc4[nH]ccc4c3N3CCC4(CCNC4=O)CC3)cc2)cn1` [Compound P-0271, 8-(5-(4-(1-methyl-1H-pyrazol-4-yl)phenyl)-1H-pyrrolo[2,3-b]pyridin-4-yl)-2,8-diazaspiro[4.5]decan-1-one], the half-maximal inhibitory concentration (IC50) in experiment [1] and in experiment [2] was 0.1 to 1 µM in each case.

Regarding `NC(=O)C1CC=C(c2cccn3ncc(-c4ccc(-n5cccn5)cc4)c23)CC1` (stereo not shown) [Compound P-0197, 4-(3-(4-(1H-pyrazol-1-yl)phenyl)pyrazolo[1,5-a]pyridin-4-yl)cyclohex-3-ene-1-carboxamide], the results for the IC50 in experiment [1] and in experiment [2] were 0.0001 to 0.1 µM and 0.1 to 1 µM, respectively.

For `N#CC1CCC(c2nccn3ncc(-c4ccc(-c5cnn(CC6CC6)c5)cc4)c23)CC1` (stereo not shown) [Compound P-0020, (1s,4s)-4-(3-(4-(1-(cyclopropylmethyl)-1H-pyrazol-4-yl)phenyl)pyrazolo[1,5-a]pyrazin-4-yl)cyclohexane-1-carbonitrile], the IC50 in experiment [1] and in experiment [2] was 0.0001 to 0.1 µM each time.

As to `N#CCCCn1cc(-c2ccc(-c3cnn4ccnc(C5=CCC(C#N)CC5)c34)cc2)cn1` (stereo not shown) [Compound P-0009, 4-(3-(4-(1-(3-cyanopropyl)-1H-pyrazol-4-yl)phenyl)pyrazolo[1,5-a]pyrazin-4-yl)cyclohex-3-ene-1-carbonitrile], the 50% inhibitory concentration (IC50) in experiment [1] and in experiment [2] was 0.0001 to 0.1 µM throughout.

With `CC(C)(C#Cc1cccn2ncc(-c3ccc4c(cnn4C(F)F)c3)c12)C(N)=O` [Compound P-0068, 4-(3-(1-(difluoromethyl)-1H-indazol-5-yl)pyrazolo[1,5-a]pyridin-4-yl)-2,2-dimethylbut-3-ynamide], the IC50 in experiment [1] and in experiment [2] was 0.0001 to 0.1 µM in each case.

With `Cc1ccc(-c2cnn3ccnc(C4=CCC(C(N)=O)CC4)c23)cn1` (stereo not shown) [Compound P-0152, 4-(3-(6-methylpyridin-3-yl)pyrazolo[1,5-a]pyrazin-4-yl)cyclohex-3-ene-1-carboxamide], the figures for the IC50 in experiment [1] and in experiment [2] were 0.1 to 1 µM and 0.0001 to 0.1 µM, respectively.

On to `Cc1cc(-c2ccc(-c3cnn4cccc(C#CC(C)(C)O)c34)cc2)n[nH]1` [Compound P-0234, 2-methyl-4-(3-(4-(5-methyl-1H-pyrazol-3-yl)phenyl)pyrazolo[1,5-a]pyridin-4-yl)but-3-yl-2-ol], for which the values for the IC50 in experiment [1] and in experiment [2] were 0.1 to 1 µM and 0.0001 to 0.1 µM, respectively.

For `N#CC1CC=C(c2c(-c3ccc(-n4cccn4)cc3)cnc3[nH]ccc23)CC1` (stereo not shown) [Compound P-0203, 4-(5-(4-(1H-pyrazol-1-yl)phenyl)-1H-pyrrolo[2,3-b]pyridin-4-yl)cyclohex-3-ene-1-carbonitrile], the IC50 in experiment [1] and in experiment [2] was 0.0001 to 0.1 µM in each case.

`Cc1c(-c2ccc(-c3cnn4cccc(C#CC(C)(C)O)c34)cc2)cnn1C` [Compound P-0230, 4-(3-(4-(1,5-dimethyl-1H-pyrazol-4-yl)phenyl)pyrazolo[1,5-a]pyridin-4-yl)-2-methylbut-3-yn-2-ol]: the IC50 in experiment [1] and in experiment [2] was 0.0001 to 0.1 µM in each case.

Take `Cc1ccc2cc(-c3cnn4ccnc(C5=CCC(C#N)CC5)c34)ccc2n1` (stereo not shown) [Compound P-0186, 4-(3-(2-methylquinolin-6-yl)pyrazolo[1,5-a]pyrazin-4-yl)cyclohex-3-ene-1-carbonitrile]: the IC50 in experiment [1] and in experiment [2] was 0.0001 to 0.1 µM in each case.

For `Cn1cc(C#Cc2cnc3cccc(N4CCC5(CC4)C(=O)Nc4ccccc45)n23)cn1` [Compound P-0437, 1′-(3-((1-methyl-1H-pyrazol-4-yl)ethynyl)imidazo[1,2-a]pyridin-5-yl)spiro[indoline-3,4′-piperidin]-2-one], the IC50 in experiment [1] and in experiment [2] was 0.0001 to 0.1 µM each time.

For the compound `N#CC1CCN(c2c(-c3ccc(-c4cnn(CC5CC5)c4)cc3)cnc3[nH]ccc23)CC1` [Compound P-0177, 1-(5-(4-(1-(cyclopropylmethyl)-1H-pyrazol-4-yl)phenyl)-1H-pyrrolo[2,3-b]pyridin-4-yl)piperidine-4-carbonitrile], the IC50 in experiment [1] and in experiment [2] was 0.0001 to 0.1 µM in each case.

Regarding `Cn1ncc2cc(-c3cnn4ccnc(C5=CCC(C#N)CC5)c34)ccc21` (stereo not shown) [Compound P-0324, 4-(3-(1-methyl-1H-indazol-5-yl)pyrazolo[1,5-a]pyrazin-4-yl)cyclohex-3-ene-1-carbonitrile], the IC50 in experiment [1] and in experiment [2] was 0.0001 to 0.1 µM each time.
